From ChEMBL document CHEMBL6083180, “Design, synthesis, and biological activity of D-bishomo-1α,25-dihydroxyvitamin D3 analogs and their crystal structures with the vitamin D nuclear receptor” (Eur J Med Chem, 2024) come the findings set out here.

pIC50: −log10 of the molar value. The source made the active and inactive calls. No cut-off for these calls is given here.

Series [1] has as its system ROS 17/2.8. As to the kind of experiment: Induction of transcriptional activity in rat ROS 17/2.8 cells transfected with CYP24 incubated for 16 hrs by Luciferase reporter gene assay. It is filed as functional, cell-based. Background: Reporter assays use an easily measured gene product as a stand-in for the process of interest.
For series [2], the system named is HCC4006. As to the kind of experiment: Antiproliferative activity against human HCC4006 cells incubated for 72 hrs by SRB assay. It is filed as functional, cell-based. To be noted: HCC4006, 72 h. For orientation: In SRB staining, fixed cells bind dye roughly in proportion to their protein.
For series [3], the system named is HCC4006. As to the kind of experiment: Antiproliferative activity against human HCC4006 cells assessed as inhibition of cell proliferation at 10 nM incubated for 72 hrs by SRB assay relative to control. Type of series: functional.
Series [4] concerns HCC4006. As to the kind of experiment: Antiproliferative activity against human HCC4006 cells assessed as inhibition of cell proliferation at 1 nM incubated for 72 hrs by SRB assay relative to control. Type of series: functional.
Series [5] has as its system NCI-H1650. As to the kind of experiment: Antiproliferative activity against human NCI-H1650 cells harboring EGFR mutation incubated for 72 hrs by SRB assay. It is filed as functional, cell-based.
Series [6] has as its system NCI-H1975. As to the kind of experiment: Antiproliferative activity against human NCI-H1975 cells harboring EGFR mutation incubated for 72 hrs by SRB assay. It is filed as functional, cell-based.
Series [7] relates to MCF7. The series can be described thus: Antiproliferative activity against human MCF7 cells at 100 nM incubated for 72 hrs by SRB assay relative to control. It is filed as functional.
In series [8] the test system is MDA-MB-231. As to the kind of experiment: Antiproliferative activity against human MDA-MB-231 cells incubated for 72 hrs by SRB assay. Type of series: functional, cell-based.
Series [9] relates to CAL-51. The series can be described thus: Antiproliferative activity against human CAL-51 cells incubated for 72 hrs by SRB assay. Type of series: functional, cell-based.
The subject of series [10] is MCF-10A. As to the kind of experiment: Antiproliferative activity against human MCF-10A cells incubated for 72 hrs by SRB assay. It is filed as toxicity, cell-based.
The subject of series [11] is MV4-11. As to the kind of experiment: Antiproliferative activity against human MV4-11 cells at 100 nM incubated for 72 hrs by MTT assay relative to control. Type of series: functional. (Tetrazolium dyes change colour on reduction, which living cells bring about.)
Series [12] relates to MV4-11. As to the kind of experiment: Antiproliferative activity against human MV4-11 cells at 1000 nM incubated for 72 hrs by MTT assay relative to control. Type of series: functional.
The test system of series [13] is HL-60. The series can be described thus: Antiproliferative activity against human HL-60 cells at 1000 nM incubated for 72 hrs by MTT assay relative to control. Type of series: functional.
Series [14] relates to HL-60. As to the kind of experiment: Antiproliferative activity against human HL-60 cells at 100 nM incubated for 72 hrs by MTT assay relative to control. It is filed as functional.
For series [15], the system named is MV4-11. The series can be described thus: Effect on cell cycle distribution in human MV4-11 cells assessed as accumulation at G0/G1 phase at 100 nM incubated for 72 hrs. Type of series: functional, cell-based.
Series [16] relates to MV4-11. The series can be described thus: Effect on cell cycle distribution in human MV4-11 cells assessed as decrease in accumulation at G2/M phase at 10 to 1000 nM incubated for 72 hrs. It is filed as functional, cell-based. To be noted: dose 10-1000 nM.
Series [17] relates to MV4-11. As to the kind of experiment: Upregulation of CD11b expression in human MV4-11 cells at 10 nM incubated for 72 hrs. Type of series: functional, cell-based.
For series [18], the system named is MV4-11. The series can be described thus: Upregulation of CD14 expression in human MV4-11 cells at 10 nM incubated for 72 hrs. It is filed as functional, cell-based.
In series [19] the test system is Rattus norvegicus. As to the kind of experiment: Induction of calcium mobilization in bone of vitamin D-deficient Sprague-Dawley rat at 2340 pmol, ip administered daily for 4 days. Type of series: functional, organism-based. To be noted: Bone element, time 4.0 day.
Series [20] concerns Rattus norvegicus. The series can be described thus: Induction of calcium transport in intestine of vitamin D-deficient Sprague-Dawley rat at 260 pmol, ip administered daily for 4 days. It is filed as functional, organism-based. As to conditions: time 4.0 day.
Series [21] concerns MV4-11. As to the kind of experiment: Antiproliferative activity against human MV4-11 cells at 1 nM incubated for 72 hrs by MTT assay relative to control. Type of series: functional.
The subject of series [22] is MV4-11. As to the kind of experiment: Antiproliferative activity against human MV4-11 cells at 10 nM incubated for 72 hrs by MTT assay relative to control. Type of series: functional.
The test system of series [23] is MV4-11. The series can be described thus: Effect on cell cycle distribution in human MV4-11 cells assessed as accumulation at G0/G1 phase at 10 nM incubated for 72 hrs. Type of series: functional, cell-based.
Series [24] relates to Rattus norvegicus. The series can be described thus: Induction of calcium mobilization in bone of vitamin D-deficient Sprague-Dawley rat at 780 pmol, ip administered daily for 4 days. It is filed as functional, organism-based. As to conditions: Bone element, time 4.0 day.
Series [25] concerns Rattus norvegicus. As to the kind of experiment: Induction of calcium transport in intestine of vitamin D-deficient Sprague-Dawley rat at 780 pmol, ip administered daily for 4 days. Type of series: functional, organism-based. As to conditions: time 4.0 day.
Series [26] deals with MV4-11. The series can be described thus: Effect on cell cycle distribution in human MV4-11 cells assessed as accumulation at G0/G1 phase at 1000 nM incubated for 72 hrs. It is filed as functional, cell-based.
Series [27] has as its system HCC4006. The series can be described thus: Antiproliferative activity against human HCC4006 cells assessed as inhibition of cell proliferation at 100 nM incubated for 72 hrs by SRB assay relative to control. Type of series: functional.
Series [28] has as its system HCC4006. The series can be described thus: Antiproliferative activity against human HCC4006 cells assessed as inhibition of cell proliferation at 1000 nM incubated for 72 hrs by SRB assay relative to control. It is filed as functional.
A short description of series [29]: Antiproliferative activity against human LUDLU-1 cells at 100 nM incubated for 72 hrs by SRB assay relative to control. It is filed as functional.
Series [30] concerns NCI-H226. As to the kind of experiment: Antiproliferative activity against human NCI-H226 cells at 100 nM incubated for 72 hrs by SRB assay relative to control. Type of series: functional.
The nature of series [31]: Antiproliferative activity against human LUDLU-1 cells at 1000 nM incubated for 72 hrs by SRB assay relative to control. Type of series: functional.
In series [32] the test system is NCI-H226. As to the kind of experiment: Antiproliferative activity against human NCI-H226 cells at 1000 nM incubated for 72 hrs by SRB assay relative to control. Type of series: functional.

In general, pIC50 refers to −log10 of the IC50, conventionally taken in molar units. Low values mean a large IC50, high ones a small IC50. One may read the inhibition as the relative decrease from the control value, in per cent.

With `C=C1[C@H](O)CC(=C/C=C2\CCC[C@@]3(C)[C@H]2CCCC[C@H]3[C@H](C)CCCC(C)(C)O)C[C@H]1O`, the Activity entry is “Active; Exhibited Higher Potency Than Calcitriol” in series [1]; “Active; Maintained Its Activity At Constant Level In Tested Concentration But Without Statistical Significance For Lowest Concentrations” in series [5]; “Active; Maintained Its Activity At Constant Level In Tested Concentration But Without Statistical Significance For Lowest Concentrations” in series [6]; “Non-toxic” in [10]; “Active; Exhibited Highest Expression” in series [17]; “Active; Second Most Potent Compound But Exhibited Less Activity Than Calcitriol” in series [19]. In addition, the Activity entry in series [20] is listed as “Active; Second Most Potent Compound But Exhibited Less Activity Than Calcitriol”. The same compound showed a pIC50 in series [2] of 7.56. Moreover, the inhibition at 0.01 µM in series [3] amounted to 44.8%. Further, the inhibition at 0.001 µM in [4] stood at 39.1%. The figures for the inhibition at 0.1 µM in [7], in series [11] and in [14] were 31%, 32.6% and 35%, respectively. In addition, the result in series [8] and in series [9] was inactive. The inhibition at 1 µM in series [12] stood at 50%; in series [13], 47.6%. The outcome in series [15], in series [16] and in series [18] was Active.
With `C=C1/C(=C\C=C2/CCC[C@@]3(C)[C@H]2CCCC[C@H]3[C@H](C)CCCC(C)(C)O)C[C@@H](O)C[C@@H]1O`, the Activity result in series [1] is listed as “Active; Exhibited Higher Potency Than Calcitriol”. Moreover, in series [2], the pIC50 was 7.30. Besides, the inhibition at 0.1 µM in series [7] amounted to 37.9%; in [11], 44.2%; in series [14], 17.1%. Further, the result in series [8], in series [9], in [24] and in series [25] was inactive. This compound also showed an inhibition at 0.001 µM in [21] of 23.7%. This compound gave an inhibition at 0.01 µM in series [22] of 41%. For the same compound, the inhibition at 1 µM was 42.8% in [12] and 39.7% in series [13]. Besides, the result in series [23], in [15], in series [16], in series [17] and in [18] was Active.
In the case of `CC1[C@H](O)CC(=C/C=C2\CCC[C@@]3(C)[C@H]2CCCC[C@H]3[C@H](C)CCCC(C)(C)O)C[C@H]1O` (some centres undefined), in series [1], the Activity entry was “Not active; Exhibited Equal Or Slightly Less Potency Than Calcitriol; Exhibited Least Activity”. For the same compound, the negative logarithm of the IC50 (pIC50) in series [2] is 7.08. In addition, the inhibition at 0.1 µM in [7] is 29%; in series [11] it was 39.7%; in [14], 20.5%. Besides, the outcome in [8], in [9], in series [17], in series [18], in series [19] and in series [25] was inactive. The inhibition at 1 µM in series [12] was found to be 29.7%; in [13] it was 43.8%. The result in series [26] and in [16] was Active.
With `C[C@H](CCCC(C)(C)O)[C@@H]1CCCC[C@H]2/C(=C/C=C3C[C@@H](O)C[C@H](O)C3)CCC[C@@]21C`, the Activity result in series [1] was “Active; Exhibited Equal Or Slightly Less Potency Than Calcitriol”; in [10], “Non-toxic”; in [18], “Active; Exhibited Highest Expression”. In series [2], the pIC50 is 7.35. For the same compound, the inhibition at 0.1 µM was 30.8% in [7], 25.3% in series [11] and 17.9% in series [14]. Further, the result in series [8], in series [9], in series [19] and in series [25] was inactive. The inhibition at 1 µM in [12] turned out to be 31.2%; in [13], 24.2%. Besides, the outcome in series [23], in [15], in [26], in series [16] and in [17] was Active.
Take `C[C@H](CCCC(C)(C)O)[C@@H]1CCCC[C@H]2/C(=C/C=C3C[C@@H](O)C(=CCCO)[C@H](O)C3)CCC[C@@]21C`: the Activity entry in series [1] is listed as “Active; Exhibited Higher Potency Than Calcitriol”; in series [24] it was “Active; Most Potent Compound And Equal In Activity To Calcitriol”; in series [20] it was “Active; Most Potent Compound And Equal In Activity To Calcitriol”. Moreover, the inhibition at 0.01 µM in [3] stood at 39.1%. In addition, the inhibition at 0.001 µM in series [4] came out at 37.5%. The inhibition at 0.1 µM in series [7] worked out at 21.3%; in [11] it was 25.5%; in series [14], 22.1%. For the same compound, the outcome in [8] and in series [9] was inactive. Moreover, the inhibition at 1 µM was determined as 32% in series [12] and 27.5% in series [13]. For the same compound, the outcome in series [23], in [16], in series [17] and in series [18] was Active.
`C=C1/C(=C\C=C2/CCC[C@]3(C)[C@@H]([C@H](C)CCCC(C)(C)O)CC[C@@H]23)C[C@@H](O)C[C@@H]1O` [CALCITRIOL]: the inhibition at 0.01 µM in series [3] amounted to 30.4%. Besides, in [4], the inhibition at 0.001 µM came out at 10.1%. For the same compound, the inhibition at 0.1 µM in series [27] stood at 14%; in series [29] it was 15%; in series [30], 15%; in series [11], 39.8%; in [14], 35.9%. Further, the inhibition at 1 µM was 17% in series [28]; 10% in series [31]; 10% in [32]; 48.8% in series [12]; 54.9% in series [13].
